Several values for one entry are separate records, joined by “and”; a condition that tells them apart may be missing. Equal values may be shown once.
Tested on: 422866-222-R5-J1-PDC complex spheroids viability
Test: Anticancer human tumor 422866-222-R5-J1-PDC patient-derived pancreatic adenocarcinoma cell line growth inhibition [RAS]
Conditions: for viability, T/C: stronger effect = lower value
Summary of the method: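 Tumour cells grown as complex spheroids with HUVEC endothelial cells and mesenchymal stem cells, treated with RAS pathway inhibitor combinations. Each agent spans half-log steps from near clinical Cmax, or 10 microM where Cmax is unknown.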

[1] = curve of first compound, second compound 0.000949 µM
[2] = curve of first compound, second compound 0.003 µM
[3] = curve of first compound, second compound 0.00949 µM
[4] = curve of first compound, second compound 0.03 µM
[5] = curve of first compound, second compound 0.0949 µM
[6] = curve of first compound, second compound 0.3 µM
[7] = second compound 0.000949 µM, first compound 0.00316 µM
[8] = second compound 0.000949 µM, first compound 0.01 µM
[9] = second compound 0.000949 µM, first compound 0.0316 µM
[10] = second compound 0.000949 µM, first compound 0.1 µM
[11] = second compound 0.000949 µM, first compound 0.316 µM
[12] = second compound 0.000949 µM, first compound 1 µM
[13] = second compound 0.003 µM, first compound 0.00316 µM
[14] = second compound 0.003 µM, first compound 0.01 µM
[15] = second compound 0.003 µM, first compound 0.0316 µM
[16] = second compound 0.003 µM, first compound 0.1 µM
[17] = second compound 0.003 µM, first compound 0.316 µM
[18] = second compound 0.003 µM, first compound 1 µM
[19] = second compound 0.00949 µM, first compound 0.00316 µM
[20] = second compound 0.00949 µM, first compound 0.01 µM
[21] = second compound 0.00949 µM, first compound 0.0316 µM
[22] = second compound 0.00949 µM, first compound 0.1 µM
[23] = second compound 0.00949 µM, first compound 0.316 µM
[24] = second compound 0.00949 µM, first compound 1 µM
[25] = second compound 0.03 µM, first compound 0.00316 µM
[26] = second compound 0.03 µM, first compound 0.01 µM
[27] = second compound 0.03 µM, first compound 0.0316 µM
[28] = second compound 0.03 µM, first compound 0.1 µM
[29] = second compound 0.03 µM, first compound 0.316 µM
[30] = second compound 0.03 µM, first compound 1 µM
[31] = second compound 0.0949 µM, first compound 0.00316 µM
[32] = second compound 0.0949 µM, first compound 0.01 µM
[33] = second compound 0.0949 µM, first compound 0.0316 µM
[34] = second compound 0.0949 µM, first compound 0.1 µM
[35] = second compound 0.0949 µM, first compound 0.316 µM
[36] = second compound 0.0949 µM, first compound 1 µM
[37] = second compound 0.3 µM, first compound 0.00316 µM
[38] = second compound 0.3 µM, first compound 0.01 µM
[39] = second compound 0.3 µM, first compound 0.0316 µM
[40] = second compound 0.3 µM, first compound 0.1 µM
[41] = second compound 0.3 µM, first compound 0.316 µM
[42] = second compound 0.3 µM, first compound 1 µM
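Note: spheroids exposed to compounds for 7 days.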
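Throughout, for viability, T/C: 100% = DMSO vehicle control viability.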

Compound: C=CC(=O)N1CCN(c2nc(OCC3CCCN3C)nc3c(F)c(-c4nc(N)cc(C)c4C(F)(F)F)c(Cl)cc23)C(C)C1 (centres undefined) + CCn1c(-c2cc(N3CCN(C)CC3)cnc2C(C)OC)c2c3cc(ccc31)-c1csc(n1)CC(NC(=O)C1CC1C)C(=O)N1CCCC(N1)C(=O)OCC(C)(C)C2
- IC50 [1]: < 3.16 nM
- IC50 [2]: < 3.16 nM
- IC50 [3]: < 3.16 nM
- IC50 [4]: < 3.16 nM
- IC50 [5]: < 3.16 nM
- IC50 [6]: < 3.16 nM
- viability, T/C [7]: 19.5%
- viability, T/C [8]: 18.6%
- viability, T/C [9]: 16.9%
- viability, T/C [10]: 18.5%
- viability, T/C [11]: 15.8%
- viability, T/C [12]: 20.3%
- viability, T/C [13]: 19.6%
- viability, T/C [14]: 15%
- viability, T/C [15]: 19.8%
- viability, T/C [16]: 18.2%
- viability, T/C [17]: 17.9%
- viability, T/C [18]: 20.6%
- viability, T/C [19]: 18.3%
- viability, T/C [20]: 19.1%
- viability, T/C [21]: 17.4%
- viability, T/C [22]: 14.8%
- viability, T/C [23]: 17.7%
- viability, T/C [24]: 18%
- viability, T/C [25]: 17.1%
- viability, T/C [26]: 15.9%
- viability, T/C [27]: 15.7%
- viability, T/C [28]: 17.9%
- viability, T/C [29]: 18.2%
- viability, T/C [30]: 22.9%
- viability, T/C [31]: 19.4%
- viability, T/C [32]: 16.9%
- viability, T/C [33]: 15.9%
- viability, T/C [34]: 19%
- viability, T/C [35]: 21.3%
- viability, T/C [36]: 21.5%
- viability, T/C [37]: 19.5%
- viability, T/C [38]: 22.9%
- viability, T/C [39]: 21.7%
- viability, T/C [40]: 20.2%
- viability, T/C [41]: 19.5%
- viability, T/C [42]: 24.9%

Compound: C=CC(=O)Nc1cc(Nc2nccc(-c3cn(C)c4ccccc34)n2)c(OC)cc1N(C)CCN(C)C
- viability, T/C (compound 0.00316 µM): 106% [middle of 4 runs]
- viability, T/C (compound 0.01 µM): 74.7% and 114% (2×) and 81.9%
- viability, T/C (compound 0.0316 µM): 87.1% [middle of 4 runs]
- viability, T/C (compound 0.316 µM): 77.7% [middle of 4 runs]
- IC50 (curve of compound): > 1000 nM

Compound: O=C(c1ccc(F)c(F)c1Nc1ccc(I)cc1F)N1CC(O)([C@@H]2CCCCN2)C1 + CCn1c(-c2cccnc2C(C)OC)c2c3cc(ccc31)N1CCOC(CC(NC(=O)C(C(C)C)N(C)C(=O)C3(F)CCN(C(=O)C#CC(C)(C)N(C)C)CC3)C(=O)N3CCCC(N3)C(=O)OCC(C)(C)C2)C1
- IC50 [1]: < 3.16 nM
- IC50 [2]: < 3.16 nM
- IC50 [3]: < 3.16 nM
- IC50 [4]: < 3.16 nM
- IC50 [5]: < 3.16 nM
- IC50 [6]: < 3.16 nM
- viability, T/C [7]: 27.1%
- viability, T/C [8]: 26.5%
- viability, T/C [9]: 21.4%
- viability, T/C [10]: 16.9%
- viability, T/C [11]: 14.8%
- viability, T/C [12]: 14%
- viability, T/C [13]: 23.4%
- viability, T/C [14]: 17.8%
- viability, T/C [15]: 16.9%
- viability, T/C [16]: 12.3%
- viability, T/C [17]: 10.9%
- viability, T/C [18]: 11.7%
- viability, T/C [19]: 26.2%
- viability, T/C [20]: 19.9%
- viability, T/C [21]: 16.2%
- viability, T/C [22]: 14.1%
- viability, T/C [23]: 11.1%
- viability, T/C [24]: 9.8%
- viability, T/C [25]: 19.6%
- viability, T/C [26]: 15.5%
- viability, T/C [27]: 14.3%
- viability, T/C [28]: 11.5%
- viability, T/C [29]: 11.7%
- viability, T/C [30]: 9.56%
- viability, T/C [31]: 16.5%
- viability, T/C [32]: 13.1%
- viability, T/C [33]: 13%
- viability, T/C [34]: 9.14%
- viability, T/C [35]: 11.8%
- viability, T/C [36]: 10.4%
- viability, T/C [37]: 15.7%
- viability, T/C [38]: 13.3%
- viability, T/C [39]: 10.9%
- viability, T/C [40]: 9.97%
- viability, T/C [41]: 12.4%
- viability, T/C [42]: 12.1%
